{
  "source": "paper PMC9945177",
  "about": "“Nature-Derived Epoxy Resin Monomers with Reduced Sensitizing Capacity—Isosorbide-Based Bis-Epoxides” (Chemical Research in Toxicology, 2023)",
  "key": {"Female CBA/Ca mice": {"test_system": "Female CBA/Ca mice", "experiment": "murine local lymph node assay (LLNA)", "assay_type": "in vivo", "procedure": "Female CBA/Ca mice, 7 to 9 weeks of age, were purchased from NOVA SCB Charles River, Germany. The mice were housed in HEPA-filtered air flow cages and kept on standard laboratory diet and water ad lib. The regional ethics committee, Jordbruksverket, approved the protocol and the procedure was performed in accordance with the guidelines.\nA previously published protocol[24] of the LLNA[34] was used to assess the sensitization potential of the isosorbide bis-epoxides 1–3. The purity of the assessed isosorbide bis-epoxides was >99% (GC/MS or LC/MS) before testing of sensitization potential. The isosorbide bis-epoxides were tested in five different concentrations; 1: 3.9 mM (0.10% w/v), 39 mM (1.0% w/v), 190 mM (5.0% w/v), 390 mM (10% w/v), and 770 mM (20% w/v); 2: 21 mM (1.0% w/v), 54 mM (2.5% w/v), 110 mM (5.0% w/v), 210 mM (10% w/v), and 540 mM (25% w/v); and 3: 2.3 mM (0.10% w/v), 23 mM (1.0% w/v), 110 mM (5.0% w/v), 230 mM (10% w/v), and 460 mM (20% w/v). A detailed description is given in Supporting Information.\nThe three isosorbide bis-epoxides were evaluated for sensitization potential in vivo with the murine LLNA (Figure 2). The stimulation index (SI) is defined as the ratio between the dpm/lymph node for the test group and the control group. Test materials that at one or more concentrations cause an SI greater than 3 are considered positive in the LLNA. The estimated concentration required to induce an SI of 3 (EC3) is used to determine the sensitizing potency of the test compound. […] Isosorbide bis-epoxide 1 gave an EC3 value of 0.17 M (4.4%), 3 gave an EC3 value of 0.36 M (16%), and no EC3 value was obtained for 2 (for full results, see the Supporting Information, Table S1).\nA previously published protocol1 of the LLNA2 was used to assess the sensitization potential of the isosorbide bis-epoxides 1-3. The purity of the assessed isosorbide bis-epoxides was >98% according to LC/MS analysis. The isosorbide bis-epoxides were tested in five different concentrations; 1: 3.87 mM […]\n456 mM (20% w/v). Briefly, mice in groups of three received 25 µL of test compound dissolved in the vehicle acetone/olive oil (4:1 v/v), on the dorsum of the ears for three consecutive days (day 0, 1, and 2). A sixth group of four mice was treated with vehicle only (control group). On day 5, all mice were injected intravenously via the tail vein with 250 µL of phosphate buffered saline (PBS) (pH 7.4, 137 mM NaCl, 2.7 mM KCl, and 10 mM phosphate buffer) containing 20 µCi [methyl-3H]thymidine. Five hours later the mice were sacrificed, the draining lymph nodes were excised and pooled for each group, followed by preparation of single-cell suspensions of lymph nodes in PBS by using cell strainers (Falcon; BD Labware, Franklin Lakes, NJ, USA; pore size, 70 µm). Cell suspensions were washed twice with PBS, precipitated with trichloroacetic acid (TCA) (5%), and stored at 4 °C overnight. The samples were then centrifuged, resuspended in TCA (5%, 1 mL), and transferred to scintillation cocktail (10 mL) (EcoLume INC Radiochemicals, Solon, OH, USA). The incorporation of [methyl-3H]thymidine into DNA was measured by b-scintillation counting with a Beckman LS 6000TA instrument. Results are expressed as the mean dpm/lymph node for each experimental group and as stimulation index (SI). The SI is defined as the ratio between dpm/lymph node for the test group and the control group. Test materials that at one or more concentrations cause an SI greater than 3 are considered positive in the LLNA. EC3 values (the estimated concentration required to induce an SI of 3) were calculated by linear interpolation.\nResults from the Local Lymph Node Assay\nTable S1: Full results from the LLNA of bis-epoxides 1-3a\nTest Test [3H]thymidine SI EC value"}, "[1]": {"experiment": "thermogravimetric analysis (TGA) of polymers formed with TETA", "assay_type": "physicochemical", "conditions": "polymer cured with TETA, TGA under nitrogen", "procedure": "Detailed information on the polymerization procedure and the thermogravimetric analysis (TGA) is given in the Supporting Information.\nPilot experiments using TGA were conducted to investigate the properties of the polymers formed from isosorbide bis-epoxides 1–3 and the commonly used curing agent TETA (Table 2 and Figure 6). The onset of degradation is described by the initial decomposition temperature (IDT) and is an indication of the thermal stability of the cured epoxy resins. The maximum weight loss rate (Rmax) and the temperature (Tmax) at Rmax were taken from the peak values of the thermograms. The activation energies (Ea) for the decomposition of the polymers were calculated from the thermograms based on the Horowitz–Metzger equation.[43],[44]"}, "AcPHCKRM": {"test_system": "AcPHCKRM", "experiment": "peptide depletion with AcPHCKRM", "conditions": "peptide 1 mM, test compound 10 mM, DMSO/phosphate buffer pH 7.4 (1:1), room temperature", "procedure": "Liquid chromatography-mass spectroscopy (LC-MS) analyses of peptide depletion experiments were performed using electrospray ionization (ESI) on a Hewlett-Packard 1100 HPLC/MS (Agilent Technologies, Waldbronn, Germany). The system included a vacuum degasser, a binary pump, an autoinjector, a column thermostat, a diode array detector, and a single quadrupole mass spectrometer. The high-performance liquid chromatography (HPLC) system was equipped with a HyPURITY C18 column (150 × 3 mm i.d., particle size 3 μm, Thermo Hypersil-Keystone, Thermo Electron Corp., Bellafonte, PA, USA). The mobile phase consisted of 0.005% pentafluoropropanoic acid, 0.1% acetic acid, and 5% acetonitrile in water (solvent A) and 0.005% pentafluoropropanoic acid, 0.1% acetic acid, and 50% water in acetonitrile (solvent B). […] The gradient conditions used were as follows: 0-8% B (0-3 min), 8-10% B (3-15 min), 10-100% B (15-18 min), 100% B (18-30 min), 100-0% B (30-30.1 min), 0% B (30.1-40 min). The ESI interface was used in positive ionization mode with the following spray chamber settings: nebulizer pressure, 35 psi; capillary voltage, 3000 V; drying gas temperature, 350 °C; and drying gas flow rate, 12 L/min. The fragmentor voltage was set to 120 V. The mass spectrometer was used in scan mode detecting molecular ions with m/z values ranging from 50 to 1800. All solvents were degassed with argon prior to use."}, "[2]": {"conditions": "estimated concentration required to induce an SI of 3, linear interpolation"}},
  "data": [
    {"smiles": "C1OC1CO[C@H]1CO[C@H]2[C@@H]1OC[C@H]2OCC1CO1", "note": "(stereo partly drawn) [Compound 1, (3R,3aR,6S,6aR)-3,6-O-Bis(3,4-epoxypropyl)-1,4:3,6-dianhydro-D-glucitol]", "values": [
      {"measurement": "EC3 value (%)", "setting": "Female CBA/Ca mice; as printed in main text", "result": 4.4, "unit": "%"},
      {"measurement": "sensitizing potency classification", "setting": "Female CBA/Ca mice; classified by EC3", "result": "moderate (EC3 > 2%, moderate)"},
      {"measurement": "EC3 value", "setting": "Female CBA/Ca mice; [2]", "result": 0.17, "unit": "M"},
      {"measurement": "EC3 value (% w/v)", "setting": "Female CBA/Ca mice; [2]", "result": 4.40, "unit": "% w/v"},
      {"measurement": "SI", "setting": "Female CBA/Ca mice; test concentration 0.10% w/v", "result": 0.82},
      {"measurement": "[3H]thymidine incorporation (dpm/lymph node)", "setting": "Female CBA/Ca mice; test concentration 0.10% w/v", "result": 213, "unit": "dpm/lymph node"},
      {"measurement": "SI", "setting": "Female CBA/Ca mice; test concentration 1.0% w/v", "result": 1.41},
      {"measurement": "[3H]thymidine incorporation (dpm/lymph node)", "setting": "Female CBA/Ca mice; test concentration 1.0% w/v", "result": 367, "unit": "dpm/lymph node"},
      {"measurement": "SI", "setting": "Female CBA/Ca mice; test concentration 5.0% w/v", "result": 3.28},
      {"measurement": "[3H]thymidine incorporation (dpm/lymph node)", "setting": "Female CBA/Ca mice; test concentration 5.0% w/v", "result": 852, "unit": "dpm/lymph node"},
      {"measurement": "SI", "setting": "Female CBA/Ca mice; test concentration 10% w/v", "result": 12.2},
      {"measurement": "[3H]thymidine incorporation (dpm/lymph node)", "setting": "Female CBA/Ca mice; test concentration 10% w/v", "result": 3164, "unit": "dpm/lymph node"},
      {"measurement": "SI", "setting": "Female CBA/Ca mice; test concentration 20% w/v", "result": 15.8},
      {"measurement": "[3H]thymidine incorporation (dpm/lymph node)", "setting": "Female CBA/Ca mice; test concentration 20% w/v", "result": 4121, "unit": "dpm/lymph node"},
      {"measurement": "Ea (activation energy for the decomposition of the cured epoxy resins)", "setting": "[1]", "result": 66.9, "unit": "kcal/mol"},
      {"measurement": "IDT (initial decomposition temperature)", "setting": "[1]", "result": 362, "unit": "°C"},
      {"measurement": "Rmax (maximum weight loss rate)", "setting": "[1]", "result": "–3.24 %/°C"},
      {"measurement": "Tmax (temperature at the maximum rate of weight loss)", "setting": "[1]", "result": 380, "unit": "°C"},
      {"measurement": "reactivity with the model peptide AcPHCKRM", "setting": "AcPHCKRM", "result": "highest reactivity"}
    ]}
  ]
}
